Like-named read-outs stand apart in the source and are kept apart here. Starred links: 1 amine or outer side, 2 acyl side, 3 side chain; linkers in the order of their positions; H or OH if unused. Non-standard residues stand in square brackets, D forms with d. Groups on a side chain read outwards from the residue. *: point of attachment. C20 diacid = O=C(O)CCCCCCCCCCCCCCCCCCC(=O)*; C18 diacid = O=C(O)CCCCCCCCCCCCCCCCC(=O)*; γGlu = O=C(O)[C@H](CCC(=O)[*:2])N[*:1]; Aib = CC(C)(N)C(=O)O
What was measured:
Assay type in all cases: cell-based
Settings in all cases: CreLuc reporter gene assay
hGLP1R = target: T1, hGLP1R (Homo sapiens, UniProt P43220); test: hGLP1R CreLuc reporter gene assay in 0.5% and 100% plasma
T1 construct: expressed in transfected cells; host or cells: HEK-293 cells carrying a CRE-luciferase reporter gene
T1 sequence (P43220 24-463): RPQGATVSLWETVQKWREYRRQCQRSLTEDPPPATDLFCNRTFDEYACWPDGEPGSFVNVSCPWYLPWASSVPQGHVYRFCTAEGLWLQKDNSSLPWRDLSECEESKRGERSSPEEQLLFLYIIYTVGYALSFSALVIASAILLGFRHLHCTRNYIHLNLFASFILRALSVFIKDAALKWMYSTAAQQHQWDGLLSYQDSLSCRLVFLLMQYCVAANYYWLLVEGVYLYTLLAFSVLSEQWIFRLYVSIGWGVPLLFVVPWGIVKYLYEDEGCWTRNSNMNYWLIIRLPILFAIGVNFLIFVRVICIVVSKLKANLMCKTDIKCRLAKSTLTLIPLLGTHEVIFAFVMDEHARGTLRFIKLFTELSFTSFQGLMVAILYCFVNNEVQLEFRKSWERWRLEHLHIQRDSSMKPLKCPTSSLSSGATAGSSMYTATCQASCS
In short: (§1)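 Agonist EC50s came from 8-concentration curves over four decades, fitted by non-linear variable-slope regression of CRE-driven luciferase luminescence. Cells were exposed 4 h at 37 °C, in buffer with 0.5% human plasma or in 100% plasma; GIPR was expressed in CHO cells, GLP-1R and NPY2R in HEK cells.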

hNPY2R = target: T2, hNPY2R (Homo sapiens, UniProt P49146); test: hNPY2R CreLuc reporter gene assay in 0.5% and 100% plasma
T2 construct: expressed in transfected cells; host or cells: HEK-293 cells carrying a CRE-luciferase reporter gene
T2 sequence (P49146 1-381): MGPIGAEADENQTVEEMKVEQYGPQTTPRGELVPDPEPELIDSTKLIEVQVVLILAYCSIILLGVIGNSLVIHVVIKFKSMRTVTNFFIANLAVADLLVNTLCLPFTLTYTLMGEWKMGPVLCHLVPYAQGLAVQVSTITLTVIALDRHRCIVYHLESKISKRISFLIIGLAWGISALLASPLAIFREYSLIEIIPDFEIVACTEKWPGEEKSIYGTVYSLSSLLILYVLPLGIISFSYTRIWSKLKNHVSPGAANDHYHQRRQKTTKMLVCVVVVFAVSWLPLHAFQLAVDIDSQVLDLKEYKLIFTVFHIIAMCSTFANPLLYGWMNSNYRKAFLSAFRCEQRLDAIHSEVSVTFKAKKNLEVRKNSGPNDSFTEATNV
In short: as §1

hGIPR = target: T3, hGIPR (Homo sapiens, UniProt P48546); test: hGIPR CreLuc reporter gene assay in 0.5% and 100% plasma
T3 construct: expressed in transfected cells; host or cells: CHO cells carrying a CRE-luciferase reporter gene
T3 sequence (P48546 22-466): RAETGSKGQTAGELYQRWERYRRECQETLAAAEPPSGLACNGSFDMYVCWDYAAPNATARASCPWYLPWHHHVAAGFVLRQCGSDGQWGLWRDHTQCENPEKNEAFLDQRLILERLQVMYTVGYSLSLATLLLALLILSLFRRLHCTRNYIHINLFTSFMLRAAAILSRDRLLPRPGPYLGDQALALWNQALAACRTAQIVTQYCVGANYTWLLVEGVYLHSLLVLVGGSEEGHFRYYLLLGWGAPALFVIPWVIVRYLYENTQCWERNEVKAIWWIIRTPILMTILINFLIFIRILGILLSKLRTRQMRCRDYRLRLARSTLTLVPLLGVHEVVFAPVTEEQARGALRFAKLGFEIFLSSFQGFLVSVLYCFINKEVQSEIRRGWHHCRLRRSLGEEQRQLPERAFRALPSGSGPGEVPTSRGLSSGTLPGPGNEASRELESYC
In short: as §1

[1] = 0.5% human plasma, read-out: hGLP1R 0.5% hP
[2] = 0.5% human plasma, read-out: hNPY2R 0.5% hP
[3] = 0.5% human plasma, read-out: hGIPR 0.5% hP
[4] = 100% human plasma, read-out: hGIPR 100% hP
[5] = 100% human plasma, read-out: hNPY2R 100% hP

Substance	EC50 (hGLP1R; [1])	EC50 (hNPY2R; [2])	EC50 (hGIPR; [3])	EC50 (hGIPR; [4])	EC50 (hNPY2R; [5])	EC50 (hGLP1R; 100% human plasma, read-out: hGLP1R 100% hP)
H-Y[Aib]EGTFTSDYSI[Aib]LEKQAQ[Aib]AFVEWLIK([γGlu-γGlu-γGlu-γGlu-C18 diacid])GGPEEGASLRHYYNWLTRQRY-NH2 [Compound 272, Y-Aib-E-G-T-F-T-S-D-Y-S-I-Aib-L-E-K-Q-A-Q-Aib-A-F-V-E-W-L-I-K(1,3)-GGPEEGASLRHYYNWLTRQRY-NH2.C18DA-gGlu-gGlu-gGlu-gGlu(1,2)]	0.31 nM	23.8 nM	0.24 nM	3.01 nM	–	–
H-Y[Aib]EGTFTSDYSI[Aib]LEKQAQ[Aib]AFVEWLIK([γGlu-γGlu-γGlu-γGlu-γGlu-C18 diacid])GGPSEGASLRHYYNWLTRQRY-NH2 [Compound 292, Y-Aib-E-G-T-F-T-S-D-Y-S-I-Aib-L-E-K-Q-A-Q-Aib-A-F-V-E-W-L-I-K(1,3)-GGPSEGASLRHYYNWLTRQRY-NH2.C18DA-gGlu-gGlu-gGlu-gGlu-gGlu(1,2)]	0.13 nM	19.9 nM	0.16 nM	–	–	–
H-Y[Aib]EGTFTSDYSI[Aib]LEKQAQ[Aib]AFVEWLIK([γGlu-γGlu-γGlu-γGlu-γGlu-C20 diacid])GGPSEGASLRHYYNWLTRQRY-NH2 [Compound 289, Y-Aib-E-G-T-F-T-S-D-Y-S-I-Aib-L-E-K-Q-A-Q-Aib-A-F-V-E-W-L-I-K(1,3)-GGPSEGASLRHYYNWLTRQRY-NH2.C20DA-gGlu-gGlu-gGlu-gGlu-gGlu(1,2)]	0.14 nM	11.1 nM	0.7 nM	1.75 nM	56.3 nM	–
H-Y[Aib]EGTFTSDYSI[Aib]LEKQAQ[Aib]AFVEWLIK([γGlu-γGlu-γGlu-γGlu-γGlu-γGlu-C20 diacid])GGGSEYVSLRHYYNWLTRQRY-NH2 [Compound 65, Y-Aib-E-G-T-F-T-S-D-Y-S-I-Aib-L-E-K-Q-A-Q-Aib-A-F-V-E-W-L-I-K(1,3)-GGGSEYVSLRHYYNWLTRQRY-NH2.C20DA-gGlu-gGlu-gGlu-gGlu-gGlu-gGlu(1,2)]	2.65 nM	11 nM	1.03 nM	–	–	–

Stronger by EC50 (hGLP1R; [1]), values ahead:

EC50 (hGLP1R; [1])	EC50 (hNPY2R; [2])	EC50 (hGIPR; [3])	EC50 (hGIPR; [4])	EC50 (hNPY2R; [5])	EC50 (hGLP1R; 100% human plasma, read-out: hGLP1R 100% hP)	Substance
0.1 nM	14.3 nM	0.18 nM	0.7 nM	–	–	H-Y[Aib]EGTFTSDYSI[Aib]LEKQAQ[Aib]AFVEWLIK([Glu-Glu-Glu-Glu-C18 diacid])GGPSEGASLRHYYNWLTRQRY-NH2 [Compound 291, Y-Aib-E-G-T-F-T-S-D-Y-S-I-Aib-L-E-K-Q-A-Q-Aib-A-F-V-E-W-L-I-K(1,3)-GGPSEGASLRHYYNWLTRQRY-NH2.C18DA-E-E-E-E(1,2)]
0.08 nM	–	0.21 nM	0.89 nM	55.2 nM	–	H-Y[Aib]EGTFTSDYSI[Aib]LEKQAQ[Aib]AFVEWLIK([γGlu-γGlu-γGlu-γGlu-C18 diacid])GGPSEGASLRHYYNWLTRQRY-NH2 [Compound 294, Y-Aib-E-G-T-F-T-S-D-Y-S-I-Aib-L-E-K-Q-A-Q-Aib-A-F-V-E-W-L-I-K(1,3)-GGPSEGASLRHYYNWLTRQRY-NH2.C18DA-gGlu-gGlu-gGlu-gGlu(1,2)]
0.08 nM	13.4 nM	0.24 nM	0.64 nM	–	0.74 nM	H-Y[Aib]EGTFTSDYSI[Aib]LEKQAQ[Aib]AFVEWLIK([γGlu-γGlu-γGlu-γGlu-γGlu-C18 diacid])GGPSSGASLRHYYNWLTRQRY-NH2 [Compound 253, Y-Aib-E-G-T-F-T-S-D-Y-S-I-Aib-L-E-K-Q-A-Q-Aib-A-F-V-E-W-L-I-K(1,3)-GGPSSGASLRHYYNWLTRQRY-NH2.C18DA-gGlu-gGlu-gGlu-gGlu-gGlu(1,2)]
0.1 nM	–	0.2 nM	–	107 nM	–	H-Y[Aib]EGTFTSDYSI[Aib]LEKQAQ[Aib]AFVEWLIK([γGlu-γGlu-γGlu-γGlu-γGlu-C18 diacid])GGPSSPASLRHYYNWLTRQRY-NH2 [Compound 180, Y-Aib-E-G-T-F-T-S-D-Y-S-I-Aib-L-E-K-Q-A-Q-Aib-A-F-V-E-W-L-I-K(1,3)-GGPSSPASLRHYYNWLTRQRY-NH2.C18DA-gGlu-gGlu-gGlu-gGlu-gGlu(1,2)]

Reference: patent US20240247080A1, “GLP1/GIP/NPY2 RECEPTOR TRIPLE AGONISTS” (Boehringer Ingelheim International GmbH, priority 2022, published 2024)
